Our source for the IC50 values is ChEMBL document CHEMBL1795338, “Identification of pentacyclic triterpenes derivatives as potent inhibitors against glycogen phosphorylase based on 3D-QSAR studies” (Eur J Med Chem, 2011).

In the assay the target is T1, Glycogen phosphorylase, muscle form (Oryctolagus cuniculus, UniProt P00489).
T1 sequence (P00489 whole entry): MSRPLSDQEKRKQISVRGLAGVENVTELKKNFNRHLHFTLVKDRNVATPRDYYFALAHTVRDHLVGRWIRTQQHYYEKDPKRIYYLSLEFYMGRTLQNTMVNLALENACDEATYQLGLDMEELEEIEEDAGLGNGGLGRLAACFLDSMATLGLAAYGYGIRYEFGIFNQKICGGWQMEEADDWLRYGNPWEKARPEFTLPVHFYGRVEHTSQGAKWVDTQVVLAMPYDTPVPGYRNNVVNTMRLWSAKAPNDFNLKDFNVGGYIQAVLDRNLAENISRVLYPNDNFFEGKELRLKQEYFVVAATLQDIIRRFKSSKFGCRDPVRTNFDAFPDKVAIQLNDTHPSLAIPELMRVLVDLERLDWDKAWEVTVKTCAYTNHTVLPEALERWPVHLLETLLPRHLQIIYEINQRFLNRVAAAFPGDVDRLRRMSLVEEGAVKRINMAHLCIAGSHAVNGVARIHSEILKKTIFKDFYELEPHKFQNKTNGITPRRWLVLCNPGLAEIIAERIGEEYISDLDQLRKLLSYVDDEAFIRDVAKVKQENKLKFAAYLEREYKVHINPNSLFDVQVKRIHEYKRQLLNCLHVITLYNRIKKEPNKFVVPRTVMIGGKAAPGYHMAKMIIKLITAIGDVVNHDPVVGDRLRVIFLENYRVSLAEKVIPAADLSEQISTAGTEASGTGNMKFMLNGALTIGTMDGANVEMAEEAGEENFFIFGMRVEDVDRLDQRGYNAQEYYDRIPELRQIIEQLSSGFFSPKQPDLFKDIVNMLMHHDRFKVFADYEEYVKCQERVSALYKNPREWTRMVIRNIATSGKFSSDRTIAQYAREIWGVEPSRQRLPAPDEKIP
In words: Inhibition of rabbit muscle glycogen phosphorylase A assessed as release of phosphate from glucose-1-phosphate after 25 mins by microplate reader based method.
With `C[C@H]1[C@H](C)CC[C@]2(C(=O)OC3CC3)CC[C@]3(C)C(=CC[C@@H]4[C@@]5(C)C[C@@H](O)[C@H](O)C(C)(C)[C@@H]5CC[C@]43C)[C@H]12`, the IC50 was 91.2 µM. With `C[C@H]1[C@H](C)CC[C@]2(C(=O)OCCN3CCCCC3)CC[C@]3(C)C(=CC[C@@H]4[C@@]5(C)C[C@@H](O)[C@H](O)[C@@](C)(CO)[C@@H]5CC[C@]43C)[C@H]12`, the IC50 came out at 132 µM. `C[C@H]1[C@H](C)CC[C@]2(C(=O)OCCN3CCOCC3)CC[C@]3(C)C(=CC[C@@H]4[C@@]5(C)C[C@@H](O)[C@H](O)[C@@](C)(CO)[C@@H]5CC[C@]43C)[C@H]12`: the IC50 came to 173 µM. Regarding `COS(=O)(=O)[C@@H]1C[C@]2(C)[C@H]3CC=C4[C@@H]5[C@@H](C)[C@H](C)CC[C@]5(C(=O)OCc5ccccc5)CC[C@@]4(C)[C@]3(C)CC[C@H]2C(C)(C)[C@H]1O`, the IC50 is 43.4 µM. As for `CC(=O)O[C@@H]1C[C@]2(C)[C@H]3CC=C4[C@@H]5[C@@H](C)[C@H](C)CC[C@]5(C(=O)O)CC[C@@]4(C)[C@]3(C)CC[C@H]2C(C)(C)[C@H]1O`, the figure is 37.7 µM; as for `CCCC(=O)O[C@@H]1C[C@]2(C)[C@H]3CC=C4[C@@H]5[C@@H](C)[C@H](C)CC[C@]5(C(=O)O)CC[C@@]4(C)[C@]3(C)CC[C@H]2C(C)(C)[C@H]1OC(=O)CCC`, 78.7 µM.

As for `C[C@H]1[C@H](C)CC[C@]2(C(=O)OCn3cccn3)CC[C@]3(C)C(=CC[C@@H]4[C@@]5(C)C[C@@H](O)[C@H](O)C(C)(C)[C@@H]5CC[C@]43C)[C@H]12`, the IC50 was found to be 62.1 µM. Consider `CCOC(=O)COC(=O)[C@]12CC[C@@H](C)[C@H](C)[C@H]1C1=CC[C@@H]3[C@@]4(C)C[C@@H](O)[C@H](O)C(C)(C)[C@@H]4CC[C@@]3(C)[C@]1(C)CC2`, for which the IC50 is 102 µM. For the compound `CCCOC(=O)[C@]12CC[C@@H](C)[C@H](C)[C@H]1C1=CC[C@@H]3[C@@]4(C)C[C@@H](O)[C@H](O)C(C)(C)[C@@H]4CC[C@@]3(C)[C@]1(C)CC2`, the IC50 was found to be 82.5 µM. Turning to `CCCCOC(=O)[C@]12CC[C@@H](C)[C@H](C)[C@H]1C1=CC[C@@H]3[C@@]4(C)C[C@@H](O)[C@H](O)C(C)(C)[C@@H]4CC[C@@]3(C)[C@]1(C)CC2`, the IC50 is 92.1 µM. Turning to `CCCCCC(=O)O[C@@H]1C[C@]2(C)[C@H]3CC=C4[C@@H]5[C@@H](C)[C@H](C)CC[C@]5(C(=O)O)CC[C@@]4(C)[C@]3(C)CC[C@H]2C(C)(C)[C@H]1O`, the IC50 is 3.26 µM. Take `C[C@H]1[C@H](C)CC[C@]2(C(=O)OCc3ccccc3)CC[C@]3(C)C(=CC[C@@H]4[C@@]5(C)C[C@@H](O)[C@H](O)C(C)(C)[C@@H]5CC[C@]43C)[C@H]12`: the IC50 is 41.2 µM. For the compound `CCOC(=O)[C@]12CC[C@@H](C)[C@H](C)[C@H]1C1=CC[C@@H]3[C@@]4(C)C[C@@H](O)[C@H](O)C(C)(C)[C@@H]4CC[C@@]3(C)[C@]1(C)CC2`, the IC50 turned out to be 46.7 µM.

With `C[C@H]1[C@H](C)CC[C@]2(C(=O)OCc3ccccc3)CC[C@]3(C)C(=CC[C@@H]4[C@@]5(C)C[C@@H](O)C(=O)C(C)(C)[C@@H]5CC[C@]43C)[C@H]12`, the IC50 is 31.8 µM. The value for `C[C@H]1[C@H](C)CC[C@]2(C(=O)O)CC[C@]3(C)C(=CC[C@@H]4[C@@]5(C)C[C@@H](OC(=O)c6ccccc6)[C@H](O)C(C)(C)[C@@H]5CC[C@]43C)[C@H]12` was 5.1 µM; that for `CC(=O)O[C@@H]1C[C@]2(C)[C@H]3CC=C4[C@@H]5[C@@H](C)[C@H](C)CC[C@]5(C(=O)O)CC[C@@]4(C)[C@]3(C)CC[C@H]2C(C)(C)[C@H]1OC(C)=O` was 35 µM; that for `CCC(=O)O[C@@H]1C[C@]2(C)[C@H]3CC=C4[C@@H]5[C@@H](C)[C@H](C)CC[C@]5(C(=O)O)CC[C@@]4(C)[C@]3(C)CC[C@H]2C(C)(C)[C@H]1OC(=O)CC` was 73.7 µM. As for `CCCC(=O)O[C@@H]1C[C@]2(C)[C@H]3CC=C4[C@@H]5[C@@H](C)[C@H](C)CC[C@]5(C(=O)O)CC[C@@]4(C)[C@]3(C)CC[C@H]2C(C)(C)[C@H]1O`, the figure is 77.9 µM.

One may read the IC50 as the concentration that inhibits the measured activity by half.
